The values that follow come from patent US20220204509A1, “PYRIMIDO FIVE-MEMBERED HETEROCYCLIC COMPOUND AND USE THEREOF AS MUTANT IDH2 INHIBITOR” (EPITAS BIOSCIENCES (SHANGHAI) CO., LTD., priority 2019, published 2022).

Residue numbers refer to the chain shown, from its start.

Assay [1] addresses T1, IDH2/R140Q (Homo sapiens, UniProt P48735, R140Q).
T1 sequence (P48735 40-452 R140Q): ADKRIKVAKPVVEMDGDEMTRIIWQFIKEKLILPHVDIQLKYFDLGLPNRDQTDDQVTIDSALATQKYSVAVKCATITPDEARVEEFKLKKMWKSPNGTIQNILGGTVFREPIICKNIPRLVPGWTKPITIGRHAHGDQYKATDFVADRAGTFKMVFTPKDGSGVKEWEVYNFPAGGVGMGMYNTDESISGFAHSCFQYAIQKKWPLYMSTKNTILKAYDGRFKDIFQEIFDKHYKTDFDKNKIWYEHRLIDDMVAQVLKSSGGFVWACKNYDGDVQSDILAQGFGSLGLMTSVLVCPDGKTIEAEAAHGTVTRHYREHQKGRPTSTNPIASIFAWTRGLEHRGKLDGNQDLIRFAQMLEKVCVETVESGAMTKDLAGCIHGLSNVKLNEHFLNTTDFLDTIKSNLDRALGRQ
Put plainly: Determination of the inhibitory activity of the compounds on IDH2/R140Q (NADPH reduction, resazurin/lipoamide dehydrogenase detection). The conditions noted are these: IDH2/R140Q inhibitory activity; pre-incubated at 25° C. for 16 hours; read-out: IC50. The class given is biochemical. Details: purchased Abcam ab198153. The method, then:
In this example, the inhibitory activity of a compound on IDH2/R140Q was determined by measuring the reduction of the cofactor NADPH. The compound was incubated with IDH2/R140Q and NADPH, and then the reaction was initiated by adding α-KG. After a certain time of reaction under linear conditions, lipoamide dehydrogenase and the corresponding substrate resazurin were added for detection. Lipoamide dehydrogenase terminated the IDH2/R140Q reaction bγ subtracting the available cofactor NADPH. It oxidized NADPH to NADP, and reduced resazurin to highly fluorescent resorufin. The production of resorufin was detected to quantify the amount of cofactor NADPH remaining after a specific reaction time.
Then 25 μL of a stop mixed solution (lipoamide dehydrogenase 36 μg/mL, resazurin 30 μM) prepared with the above reaction buffer was added to convert resazurin to resorufin to measure the remaining NADPH. After 10 minutes of incubation at 25° C., the fluorescence value was measured by Tecan […] […] The enzyme activity was measured at 10 concentrations for each compound, and multiple background holes without enzyme and full enzyme activity holes without compound were set up in the reaction. The concentration of dimethyl sulfoxide in the system was less than or equal to 2%. […] The multi-well plate in this example was purchased from Thermo Fisher Scientific, NADPH, α-KG, lipoamide dehydrogenase, and resazurin were purchased from Shenggong Bioengineering Co., Ltd., and IDH2/R140Q was purchased from Abcam (ab198153).
Background: Alamar Blue is a resazurin reagent that responds to reducing activity.

The next assay has as its target T2, IDH2/WT (Homo sapiens, UniProt P48735).
T2 construct: made in house; host or cells: E. coli
T2 sequence (P48735 40-452): T1 sequence (P48735 40-452 R140Q) with Q101R
Put plainly: Determination of the selectivity of compounds to wild-type IDH2 (IDH2/WT). The class given is biochemical. To be noted: Inhibitory activity on IDH2/WT; pre-incubated at 25° C. for 16 hours. The method, then:
The compound was incubated with IDH2/WT and NADP, and then the reaction was initiated by adding isocitrate. After a certain time of reaction under linear conditions, lipoamide dehydrogenase and resazurin were added to detect the amount of fluorescent substances. In this experiment, NADP was reduced to NADPH. The latter reduced resazurin to highly fluorescent resorufin under the action of lipoamide dehydrogenase. The production of resorufin was detected to quantify the amount of cofactor NADPH generated after a specific reaction time, so as to calculate the compound's inhibitory effect on IDH2/WT.
Specifically, in a 96-well plate, in a total reaction volume of 50 μL, a mixture of 0.6 nM IDH2/WT, serially diluted inhibitors, and 50 μM NADP in a reaction buffer containing Tris-HCl 20 mM (pH 7.5), 150 mM NaCl, 10 mM MgCl2, 10% Glycerol, 0.03% BSA, and 2.5 mM β-mercaptoethanol, was pre-incubated at 25° C. for 16 hours. Isocitrate was added to 50 μM and the reaction was carried out at 25° C. for 30 minutes. Then 25 μL of a mixed solution (lipoamide dehydrogenase 36 μg/mL, resazurin 30 μM) prepared with the above reaction buffer was added to convert resazurin to resorufin to measure the NADPH produced. After 10 minutes of incubation at 25° C., the fluorescence value was measured by Tecan INFINITE F FLEX under Ex544/Em590. The enzyme activity was measured at 10 concentrations for each compound, and multiple background holes without enzyme and full enzyme activity holes without compound were set up in the reaction. The concentration of dimethyl sulfoxide in the system was less than or equal to 2%. The value of IC50 was obtained by the formula: Y=100/(1+10^((Log IC50−X)*HillSlope)) using XLFit5 software (IDBS Software). In the method, the multi-well plate was purchased from Thermo Fisher Scientific, NADP, α-KG, lipoamide dehydrogenase, and resazurin were purchased from Shenggong Bioengineering Co., Ltd., and IDH2/WT was obtained by purification after E. coli overexpression.

The target in assay [2] is T1, IDH2/R140Q. Briefly: Inhibition of mutant IDH2 activity at the cell level (extracellular 2-HG, U87MG overexpressing IDH2/R140Q). Type of assay: cell-based. To be noted: U87MG overexpressing IDH2/R140Q; 2-HG in medium after 24 hours of culturing with compound; read-out: IC50. The method, then: 2-hydroxyglutarate dehydrogenase (2HGDH) can reduce NAD+ to NADH in the presence of 2-HG. The latter can be quantitatively detected by diaphorase and its substrate Resazurin.
The glioma cells U87MG overexpressing IDH2/R140Q mutation were cultured in 1% sodium pyruvate high-sugar MEM, 10% FBS, and placed in a CO2 incubator (37° C., 5% CO2, 95% air) for cultivation.
The cells were digested with trypsin and seeded in a 96-well plate at a density of 1×10^4 with a medium of 200 μL and cultured in a 37° C. incubator overnight. The next day, the test compound was added to a final concentration of 0.1% for DMSO. […] The protein and other components in the medium that may interfere with the results were filtered, and the follow-up method was used to detect the content of 2-HG. 50 uL CellTiter-Glo (purchased from Promega) was added to the 96-well plate with the remaining 100 μL of medium to detect cell survival;
Extracellular 2-HG detecting system:
(1) 50 μL reaction system: reaction buffer (50 mM Tris pH7.5, 100 mM NaCl, 20 mM MgCl2, 0.05% BSA), in which the final concentration of NAD+ was 40 μM, the final concentration of 2HGDH was 20 nM, and the test sample was added to 5 μL of medium; the reaction solution was mixed and centrifuged, and the reaction was carried out for 1 hour at 25° C. in the dark;
Preparation of 2-HG standard curve: a 2-HG stock solution was diluted to 20 μM with reaction buffer, and a 2-fold gradient diluting was performed for a total of 6 points. Afterwards, the above-mentioned 2-HG was measured according to the extracellular 2-HG detecting system, and a standard curve was calculated and drawn.
Calculation of extracellular 2-HG content:
The fluorescence value obtained in the extracellular 2-HG detecting system was calculated using the 2-HG standard curve to calculate the content of 2-HG in the medium, and DMSO was used as a negative control to calculate the compound's inhibition against IDH2/R140Q mutation producing 2-HG activity.

With `Cc1cc2c(NC3CC3)nc(-c3ccccc3)nc2[nH]1` [Compound 23, N-cyclopropyl-6-methyl-2-phenyl-7H-pyrrolo[2,3-d]pyrimidin-4-amine], the IC50 (as a rule, the concentration that gives 50% inhibition) was 100 to 1000 nM on IDH2/R140Q [1], over 5 µM on IDH2/WT and 100 to 1000 nM on IDH2/R140Q [2].
For the molecule `Cc1cc2c(NC(C)C)nc(-c3ccccc3F)nc2[nH]1` [Compound 25, 2-(2-fluorophenyl)-N-isopropyl-6-methyl-7H-pyrrolo[2,3-d]pyrimidin-4-amine], the figures for the 50% inhibitory concentration (IC50) at IDH2/R140Q [1], against IDH2/WT and at IDH2/R140Q [2] were 100 to 1000 nM, over 5 µM and 100 to 1000 nM, respectively.
Take `Cc1cc2c(NC3CC3)nc(-c3ccccc3F)nc2[nH]1` [Compound 28, N-cyclopropyl-2-(2-fluorophenyl)-6-methyl-7H-pyrrolo[2,3-d]pyrimidin-4-amine]: the IC50 on IDH2/R140Q [1] is 100 to 1000 nM; at IDH2/WT it was over 5 µM; at IDH2/R140Q [2], under 100 nM.
Taken in the same sequence, the figures for `Cc1cc2c(NC3CCCC3)nc(-c3ccccc3)nc2[nH]1` [Compound 36, N-cyclopentyl-6-methyl-2-phenyl-7H-pyrrolo[2,3-d]pyrimidin-4-amine] were under 100 nM, over 5 µM and 100 to 1000 nM.
